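Test compounds were applied to cells in 96-well plates for 48 hours at 5 doses. The concentration for 50% growth inhibition is given as GI50.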 The source made the active and inactive calls. Rule as the data show it: active = GI50 up to about 1.1 µM and inactive = higher.
How the values were obtained:
Test in all cases: NCI-60 cell line screen, 48 h
A549 = tested on: A549
BT-549 = tested on: BT-549
EKVX = tested on: EKVX
HCC 2998 = tested on: HCC 2998
HCT-15 = tested on: HCT-15
HT-29 = tested on: HT-29
KM12 = tested on: KM12
LOX IMVI = tested on: LOX IMVI
NCI-H522 = tested on: NCI-H522
OVCAR-3 = tested on: OVCAR-3
OVCAR-8 = tested on: OVCAR-8
SK-MEL-2 = tested on: SK-MEL-2
SK-MEL-5 = tested on: SK-MEL-5
SK-OV-3 = tested on: SK-OV-3
SW-620 = tested on: SW-620
U-251 = tested on: U-251
UACC-257 = tested on: UACC-257
RXF 393 = tested on: RXF 393
SNB-75 = tested on: SNB-75

Structure (SMILES)	GI50 (A549)	GI50 (BT-549)	GI50 (EKVX)	GI50 (HCC 2998)	GI50 (HCT-15) [µM]	GI50 (HT-29)	GI50 (KM12)	GI50 (LOX IMVI)	GI50 (NCI-H522)	GI50 (OVCAR-3)	GI50 (OVCAR-8)	GI50 (SK-MEL-2)	GI50 (SK-MEL-5)	GI50 (SK-OV-3)	GI50 (SW-620)	GI50 (U-251)	GI50 (UACC-257)	GI50 (RXF 393)	GI50 (SNB-75)
O=C(Nc1ccccc1F)c1cc2ccc(O)cc2o/c1=N\c1ccccc1F	2.31 µM (inactive)	2.83 µM (inactive)	2.75 µM (inactive)	2.99 µM (inactive)	2.47	17.2 µM (inactive)	1.98 µM (inactive)	2.57 µM (inactive)	1.44 µM (inactive)	2.1 µM (inactive)	1.77 µM (inactive)	1.84 µM (inactive)	1.77 µM (inactive)	25.4 µM (inactive)	2.88 µM (inactive)	1.93 µM (inactive)	2.74 µM (inactive)		
CC(C)(C)/N=c1/n(C(C)(C)C)oc(=O)n1C(C)(C)C	> 100 µM (inactive)	> 100 µM (inactive)	> 100 µM (inactive)	> 100 µM (inactive)	> 100	> 100 µM (inactive)	> 100 µM (inactive)	> 100 µM (inactive)		> 100 µM (inactive)	> 100 µM (inactive)	> 100 µM (inactive)	> 100 µM (inactive)	> 100 µM (inactive)	> 100 µM (inactive)	> 100 µM (inactive)	> 100 µM (inactive)	> 100 µM (inactive)	99.5 µM (inactive)
CCOC(=O)c1cn(-c2ccccc2)c(=S)n2c1nc1ccccc12	42.9 µM (inactive)	41.8 µM (inactive)	32.8 µM (inactive)	> 52.7 µM (inactive)	41.5	30.5 µM (inactive)	33.7 µM (inactive)	> 67.1 µM (inactive)		52.2 µM (inactive)	24.4 µM (inactive)	32.9 µM (inactive)	23.1 µM (inactive)	> 100 µM (inactive)	52.6 µM (inactive)	58.5 µM (inactive)	40 µM (inactive)	54.8 µM (inactive)	> 71.6 µM (inactive)
CC(=O)Oc1ccc2c(c1)oc1c3ccc(OC(C)=O)cc3n(C)c(=O)c21	35.1 µM (inactive)	93.1 µM (inactive)	13.2 µM (inactive)	17.2 µM (inactive)	36.5	31.8 µM (inactive)	3.78 µM (inactive)			32.5 µM (inactive)	22.5 µM (inactive)		4.71 µM (inactive)	14.8 µM (inactive)	26.4 µM (inactive)	55 µM (inactive)	21.9 µM (inactive)	38.7 µM (inactive)	1.14 µM (inactive)
CCOC(=O)CCC(NC(=O)c1ccc(Nc2nc3ccccc3nc2-c2cccs2)cc1)C(=O)OCC (configuration not stated)	63.2 µM (inactive)	23.6 µM (inactive)	31.6 µM (inactive)	33.9 µM (inactive)	21.9	25.6 µM (inactive)	24.6 µM (inactive)	23.1 µM (inactive)		> 100 µM (inactive)	20.8 µM (inactive)	31.2 µM (inactive)	15.2 µM (inactive)	28.6 µM (inactive)	33.8 µM (inactive)	27.4 µM (inactive)	29.2 µM (inactive)	87.3 µM (inactive)	36.3 µM (inactive)
N#CCCCCC12C3C(=O)N(c4ccccc4)C(=O)C3ON1O[C@@H]1C(=O)N(c3ccccc3)C(=O)[C@@H]12 (some centres not stated)	> 100 µM (inactive)	> 100 µM (inactive)	> 100 µM (inactive)	> 100 µM (inactive)	> 100	> 100 µM (inactive)	> 100 µM (inactive)	> 100 µM (inactive)	> 100 µM (inactive)	> 100 µM (inactive)	> 100 µM (inactive)		> 100 µM (inactive)	> 100 µM (inactive)	> 100 µM (inactive)	> 100 µM (inactive)	> 100 µM (inactive)		
CC(=O)OC(/C=C/c1ccccc1)=C(OC(C)C)/C1=C(\c2ccccc2)SCCCSC1=O	> 100 µM (inactive)	44.6 µM (inactive)	53.2 µM (inactive)	> 100 µM (inactive)	> 100	> 100 µM (inactive)	> 100 µM (inactive)	> 100 µM (inactive)		> 100 µM (inactive)	> 100 µM (inactive)	> 100 µM (inactive)	> 100 µM (inactive)	> 100 µM (inactive)	> 100 µM (inactive)	> 100 µM (inactive)	> 100 µM (inactive)	74.3 µM (inactive)	52.6 µM (inactive)
Cc1nn(C)c2c1C(=O)N(C)CC(=O)N2C	> 100 µM (inactive)	> 100 µM (inactive)	> 100 µM (inactive)	> 100 µM (inactive)	69.7	> 100 µM (inactive)	> 100 µM (inactive)		> 100 µM (inactive)	> 100 µM (inactive)	> 100 µM (inactive)		> 100 µM (inactive)	> 100 µM (inactive)	> 100 µM (inactive)	> 100 µM (inactive)	> 100 µM (inactive)	> 100 µM (inactive)	> 100 µM (inactive)
CC(=O)OC1(C)C=CC(=O)C=C1	> 100 µM (inactive)	57.3 µM (inactive)	62.5 µM (inactive)	> 100 µM (inactive)	18	63.5 µM (inactive)	> 100 µM (inactive)	32.6 µM (inactive)	10.8 µM (inactive)	51.8 µM (inactive)	24.7 µM (inactive)	28.2 µM (inactive)	40.2 µM (inactive)	> 100 µM (inactive)	60.4 µM (inactive)	13.3 µM (inactive)	17.1 µM (inactive)		84.1 µM (inactive)
O=C1C(Cl)=C(OCCCCl)C(=O)c2c(O)ccc(O)c21	6.4 µM (inactive)	1.92 µM (inactive)	17.7 µM (inactive)	14.8 µM (inactive)	1.84	2.03 µM (inactive)	13.1 µM (inactive)	1.76 µM (inactive)		2.42 µM (inactive)	7.06 µM (inactive)		1.73 µM (inactive)	21.5 µM (inactive)	1.35 µM (inactive)	5.9 µM (inactive)	2.32 µM (inactive)	2.28 µM (inactive)	2 µM (inactive)
CCC1OC2C(CC=C(C)C)=C3OC(C)(O)C(C)(CC)C(OC(C)=O)C3=C3OC(=O)C=C1C32 (configuration not stated)	31.6 µM (inactive)	21.5 µM (inactive)	33.3 µM (inactive)	24 µM (inactive)	37	22.8 µM (inactive)	23.1 µM (inactive)	21.3 µM (inactive)	16.6 µM (inactive)	37.8 µM (inactive)	35 µM (inactive)	19.9 µM (inactive)	20.4 µM (inactive)	33.6 µM (inactive)	53.7 µM (inactive)	30.3 µM (inactive)	22.2 µM (inactive)		23.6 µM (inactive)
Cn1c(COC(=O)NC2CCCCC2)c(COC(=O)NC2CCCCC2)c2ccc3ccccc3c21	83.8 µM (inactive)	55.3 µM (inactive)	47.2 µM (inactive)		48.1	53.6 µM (inactive)	30 µM (inactive)	23.3 µM (inactive)	16.2 µM (inactive)	58.3 µM (inactive)	40.2 µM (inactive)	31.6 µM (inactive)	31.7 µM (inactive)	> 100 µM (inactive)	32.4 µM (inactive)	> 100 µM (inactive)	93.1 µM (inactive)	24 µM (inactive)	26.1 µM (inactive)
Cc1ccc(C(=O)NN=C(/N=N/c2cccc(C)c2)c2ccc(N(C)C)cc2)cc1	> 100 µM (inactive)	> 100 µM (inactive)	> 100 µM (inactive)	> 100 µM (inactive)	> 100	> 100 µM (inactive)	> 100 µM (inactive)	> 100 µM (inactive)	> 100 µM (inactive)	> 100 µM (inactive)	> 100 µM (inactive)	> 100 µM (inactive)	> 100 µM (inactive)	64 µM (inactive)	> 100 µM (inactive)	> 100 µM (inactive)	> 100 µM (inactive)		
O=C1CCCC[C@H]1C(O)CC1CC(=O)N(c2ccccc2)C(=O)C1 (some centres not stated)	> 100 µM (inactive)	> 100 µM (inactive)		> 100 µM (inactive)	> 100	> 100 µM (inactive)	> 100 µM (inactive)	> 100 µM (inactive)	> 100 µM (inactive)	> 100 µM (inactive)	> 100 µM (inactive)		> 100 µM (inactive)		> 100 µM (inactive)	> 100 µM (inactive)	> 100 µM (inactive)	> 100 µM (inactive)	> 100 µM (inactive)
C/C(=N/S(=O)(=O)c1ccc(Cl)c(Cl)c1)OCC(C)(C)C	> 100 µM (inactive)	> 100 µM (inactive)	> 100 µM (inactive)		> 100	> 100 µM (inactive)	> 100 µM (inactive)	> 100 µM (inactive)	> 100 µM (inactive)	> 100 µM (inactive)	> 100 µM (inactive)	> 100 µM (inactive)	> 100 µM (inactive)	> 100 µM (inactive)	> 100 µM (inactive)	> 100 µM (inactive)	> 100 µM (inactive)	> 100 µM (inactive)	> 100 µM (inactive)
Cc1cnccc1/N=N/c1ccc(N(C)C)cc1	30.7 µM (inactive)	15.9 µM (inactive)	9.55 µM (inactive)	13.5 µM (inactive)	15.1	23.1 µM (inactive)	20.3 µM (inactive)	17.4 µM (inactive)		19.6 µM (inactive)	22.1 µM (inactive)		15 µM (inactive)	16.7 µM (inactive)	22.4 µM (inactive)	21.3 µM (inactive)	22.3 µM (inactive)	14.9 µM (inactive)	14.5 µM (inactive)
